{
  "source": "ChEMBL document CHEMBL1201862",
  "about": "“PubChem BioAssay data set” (2004)",
  "key": {"Beta-galactosidase": {"target": "Beta-galactosidase (Escherichia coli, UniProt Q8VNN2)", "assay": "PubChem AID 485352", "format": "functional"}, "[1]": {"target": "T1, Type-1 angiotensin II receptor (Homo sapiens, UniProt P30556)", "T1 sequence (P30556 whole entry)": "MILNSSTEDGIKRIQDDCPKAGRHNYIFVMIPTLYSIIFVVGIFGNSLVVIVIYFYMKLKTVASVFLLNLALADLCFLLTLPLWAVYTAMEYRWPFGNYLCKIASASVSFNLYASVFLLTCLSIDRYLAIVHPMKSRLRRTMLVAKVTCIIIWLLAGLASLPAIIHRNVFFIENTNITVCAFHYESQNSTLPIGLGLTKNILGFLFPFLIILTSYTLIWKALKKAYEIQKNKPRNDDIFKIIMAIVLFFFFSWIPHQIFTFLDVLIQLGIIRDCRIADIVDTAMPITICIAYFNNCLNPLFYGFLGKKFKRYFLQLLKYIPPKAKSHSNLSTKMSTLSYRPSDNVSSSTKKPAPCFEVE", "assay": "AT1 receptor antagonists, dose response, selectivity assay for APJ receptor antagonist project, cell-based, uHTS hits (AID 463214);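 note: antagonist potency against angiotensin II stimulated AT1 response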", "format": "functional"}, "[2]": {"target": "Peroxisome proliferator-activated receptor gamma/Nuclear receptor coactivator 2 (Homo sapiens, UniProt P37231)", "assay": "(§1) TR-FRET dose response biochemical High Throughput Screening assay for agonists of the steroid receptor coactivator 2 (SRC-2) recruitment by the peroxisome proliferator-activated receptor gamma (PPAR gamma): non-selective agonists. [Related pubchem assays: 1297, 1032 ]", "format": "functional"}, "[3]": {"target": "Peroxisome proliferator-activated receptor gamma/Nuclear receptor coactivator 3 (Homo sapiens, UniProt P37231)", "sequence (P37231 whole entry)": "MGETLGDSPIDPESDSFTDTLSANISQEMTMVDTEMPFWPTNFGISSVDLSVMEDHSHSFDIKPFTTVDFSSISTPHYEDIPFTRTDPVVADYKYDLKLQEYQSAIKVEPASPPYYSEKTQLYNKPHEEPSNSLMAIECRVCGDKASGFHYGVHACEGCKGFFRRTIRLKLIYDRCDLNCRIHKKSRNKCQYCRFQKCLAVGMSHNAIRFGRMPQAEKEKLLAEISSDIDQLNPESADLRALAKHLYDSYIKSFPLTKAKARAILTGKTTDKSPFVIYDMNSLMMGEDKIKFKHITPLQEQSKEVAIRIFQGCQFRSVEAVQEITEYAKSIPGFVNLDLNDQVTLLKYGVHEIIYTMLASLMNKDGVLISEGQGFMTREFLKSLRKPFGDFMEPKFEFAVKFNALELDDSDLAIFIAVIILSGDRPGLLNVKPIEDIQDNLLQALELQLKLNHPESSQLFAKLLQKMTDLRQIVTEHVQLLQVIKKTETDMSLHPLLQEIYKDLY", "sequence (Q9Y6Q9 whole entry, further chain)": "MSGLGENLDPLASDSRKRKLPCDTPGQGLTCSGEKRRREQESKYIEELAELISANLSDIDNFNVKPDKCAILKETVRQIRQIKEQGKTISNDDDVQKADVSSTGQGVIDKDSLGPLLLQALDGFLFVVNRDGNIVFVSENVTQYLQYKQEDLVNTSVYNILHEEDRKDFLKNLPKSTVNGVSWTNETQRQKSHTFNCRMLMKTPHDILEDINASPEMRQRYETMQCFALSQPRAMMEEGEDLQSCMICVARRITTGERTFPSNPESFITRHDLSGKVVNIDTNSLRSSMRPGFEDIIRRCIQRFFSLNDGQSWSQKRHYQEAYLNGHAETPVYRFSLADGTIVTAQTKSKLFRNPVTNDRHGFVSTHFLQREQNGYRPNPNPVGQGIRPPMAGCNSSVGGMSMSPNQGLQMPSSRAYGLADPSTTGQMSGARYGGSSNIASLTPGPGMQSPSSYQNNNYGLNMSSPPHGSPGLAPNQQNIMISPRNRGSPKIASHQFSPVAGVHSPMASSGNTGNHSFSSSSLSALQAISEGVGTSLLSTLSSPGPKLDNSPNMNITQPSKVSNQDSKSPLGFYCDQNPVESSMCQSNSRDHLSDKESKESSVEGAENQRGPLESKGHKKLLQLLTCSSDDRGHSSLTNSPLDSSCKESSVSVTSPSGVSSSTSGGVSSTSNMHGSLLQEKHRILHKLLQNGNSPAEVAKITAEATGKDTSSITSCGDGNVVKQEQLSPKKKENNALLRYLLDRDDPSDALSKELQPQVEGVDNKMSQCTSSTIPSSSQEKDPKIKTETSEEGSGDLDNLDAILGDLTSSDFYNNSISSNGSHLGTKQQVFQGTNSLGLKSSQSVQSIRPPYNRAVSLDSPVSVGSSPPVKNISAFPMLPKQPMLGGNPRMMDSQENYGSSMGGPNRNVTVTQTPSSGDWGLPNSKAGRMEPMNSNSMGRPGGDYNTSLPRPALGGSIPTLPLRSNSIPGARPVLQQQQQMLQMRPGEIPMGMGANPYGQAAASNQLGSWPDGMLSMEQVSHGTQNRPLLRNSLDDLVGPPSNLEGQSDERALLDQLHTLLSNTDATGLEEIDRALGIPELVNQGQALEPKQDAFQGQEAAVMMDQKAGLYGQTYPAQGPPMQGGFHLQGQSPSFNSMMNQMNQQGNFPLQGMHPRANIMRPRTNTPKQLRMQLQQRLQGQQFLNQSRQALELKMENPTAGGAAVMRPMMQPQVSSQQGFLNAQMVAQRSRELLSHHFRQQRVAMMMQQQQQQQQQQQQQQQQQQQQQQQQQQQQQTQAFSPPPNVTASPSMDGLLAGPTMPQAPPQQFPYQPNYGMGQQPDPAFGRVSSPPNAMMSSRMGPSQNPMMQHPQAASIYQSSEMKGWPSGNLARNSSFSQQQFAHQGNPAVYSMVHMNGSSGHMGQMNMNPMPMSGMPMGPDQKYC", "assay": "as §1, with “3 (SRC-3)” for “2 (SRC-2)”, “1301 (Confirmation screen.), 1048 (Primary screen.)]” for “1297, 1032 ]”", "format": "functional"}, "[4]": {"target": "Peroxisome proliferator-activated receptor gamma/Nuclear receptor coactivator 1 (Homo sapiens, UniProt P37231)", "sequence (P37231 whole entry)": "as the sequence (P37231 whole entry) above", "sequence (Q15788 whole entry, further chain)": "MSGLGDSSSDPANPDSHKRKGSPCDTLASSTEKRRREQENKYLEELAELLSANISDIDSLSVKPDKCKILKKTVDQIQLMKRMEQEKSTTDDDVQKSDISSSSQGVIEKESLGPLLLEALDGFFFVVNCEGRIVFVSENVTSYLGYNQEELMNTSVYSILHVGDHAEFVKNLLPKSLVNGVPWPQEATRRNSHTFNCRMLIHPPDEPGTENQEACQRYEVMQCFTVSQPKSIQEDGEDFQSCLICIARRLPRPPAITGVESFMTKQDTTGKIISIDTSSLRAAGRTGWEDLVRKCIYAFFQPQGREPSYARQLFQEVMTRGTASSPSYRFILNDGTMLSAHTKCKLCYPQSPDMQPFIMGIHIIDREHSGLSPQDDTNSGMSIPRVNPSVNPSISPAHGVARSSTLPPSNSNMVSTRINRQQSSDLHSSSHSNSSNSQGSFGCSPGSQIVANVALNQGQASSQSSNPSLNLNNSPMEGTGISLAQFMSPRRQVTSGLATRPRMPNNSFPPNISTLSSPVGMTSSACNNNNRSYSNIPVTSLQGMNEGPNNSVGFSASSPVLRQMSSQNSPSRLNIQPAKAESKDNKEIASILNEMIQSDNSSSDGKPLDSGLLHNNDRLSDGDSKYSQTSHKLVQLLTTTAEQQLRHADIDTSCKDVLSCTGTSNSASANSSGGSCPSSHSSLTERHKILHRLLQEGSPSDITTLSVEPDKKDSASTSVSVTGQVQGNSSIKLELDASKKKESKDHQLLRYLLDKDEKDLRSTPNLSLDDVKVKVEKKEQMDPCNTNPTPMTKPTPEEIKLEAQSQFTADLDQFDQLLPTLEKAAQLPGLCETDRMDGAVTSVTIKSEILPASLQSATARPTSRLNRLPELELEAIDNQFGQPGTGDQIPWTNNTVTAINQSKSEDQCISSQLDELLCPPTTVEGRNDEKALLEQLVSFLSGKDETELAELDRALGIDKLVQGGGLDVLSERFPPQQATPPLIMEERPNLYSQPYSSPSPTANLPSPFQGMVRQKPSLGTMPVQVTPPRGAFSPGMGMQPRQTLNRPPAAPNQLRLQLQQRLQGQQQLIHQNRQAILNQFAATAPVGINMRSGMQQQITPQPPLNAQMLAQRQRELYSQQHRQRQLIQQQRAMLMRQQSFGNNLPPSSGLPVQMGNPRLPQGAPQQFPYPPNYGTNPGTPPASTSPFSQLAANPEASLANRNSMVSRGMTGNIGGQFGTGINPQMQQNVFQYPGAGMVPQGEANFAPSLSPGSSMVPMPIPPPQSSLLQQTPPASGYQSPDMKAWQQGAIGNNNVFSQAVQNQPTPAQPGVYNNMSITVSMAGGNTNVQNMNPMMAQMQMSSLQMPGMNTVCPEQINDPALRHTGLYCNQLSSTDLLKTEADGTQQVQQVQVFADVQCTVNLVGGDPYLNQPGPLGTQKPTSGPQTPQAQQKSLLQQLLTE", "assay": "as §1, with “1 (SRC-1)” for “2 (SRC-2)”, “assays (depositor defined):AID1300, AID1808, AID504735, AID631]” for “assays: 1297, 1032 ]”", "format": "protein assay"}, "[5]": {"target": "T2, Delta-type opioid receptor (Homo sapiens, UniProt P41143)", "T2 sequence (P41143 whole entry)": "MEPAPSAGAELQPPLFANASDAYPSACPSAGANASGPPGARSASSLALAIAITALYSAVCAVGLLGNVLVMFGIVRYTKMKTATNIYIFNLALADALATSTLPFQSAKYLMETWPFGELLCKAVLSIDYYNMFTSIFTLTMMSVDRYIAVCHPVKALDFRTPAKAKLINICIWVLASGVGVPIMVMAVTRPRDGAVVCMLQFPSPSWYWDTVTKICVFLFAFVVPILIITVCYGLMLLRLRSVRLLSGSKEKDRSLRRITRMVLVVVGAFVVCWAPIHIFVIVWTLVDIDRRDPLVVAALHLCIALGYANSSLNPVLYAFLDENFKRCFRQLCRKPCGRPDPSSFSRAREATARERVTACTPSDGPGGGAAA", "assay": "DOR antagonists, SAR follow-up, image-based (AID 2357)", "format": "functional"}, "Mu-type opioid receptor [6]": {"target": "T3, Mu-type opioid receptor (Homo sapiens, UniProt P35372)", "T3 sequence (P35372 whole entry)": "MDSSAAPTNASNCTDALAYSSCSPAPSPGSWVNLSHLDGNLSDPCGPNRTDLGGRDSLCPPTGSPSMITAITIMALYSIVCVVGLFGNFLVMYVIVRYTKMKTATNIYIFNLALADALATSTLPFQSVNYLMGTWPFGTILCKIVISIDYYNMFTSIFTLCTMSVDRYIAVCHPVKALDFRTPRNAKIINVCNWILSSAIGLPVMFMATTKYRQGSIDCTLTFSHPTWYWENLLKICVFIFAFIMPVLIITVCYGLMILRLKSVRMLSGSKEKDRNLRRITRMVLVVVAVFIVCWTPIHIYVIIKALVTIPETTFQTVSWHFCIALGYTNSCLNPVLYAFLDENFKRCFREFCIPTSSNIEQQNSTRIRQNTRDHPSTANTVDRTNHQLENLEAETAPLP", "assay": "MOR agonists by imaging, SAR follow-up, image-based (AID 2352)", "format": "functional"}, "[7]": {"target": "T4, Kappa-type opioid receptor (Homo sapiens, UniProt P41145)", "T4 sequence (P41145 whole entry)": "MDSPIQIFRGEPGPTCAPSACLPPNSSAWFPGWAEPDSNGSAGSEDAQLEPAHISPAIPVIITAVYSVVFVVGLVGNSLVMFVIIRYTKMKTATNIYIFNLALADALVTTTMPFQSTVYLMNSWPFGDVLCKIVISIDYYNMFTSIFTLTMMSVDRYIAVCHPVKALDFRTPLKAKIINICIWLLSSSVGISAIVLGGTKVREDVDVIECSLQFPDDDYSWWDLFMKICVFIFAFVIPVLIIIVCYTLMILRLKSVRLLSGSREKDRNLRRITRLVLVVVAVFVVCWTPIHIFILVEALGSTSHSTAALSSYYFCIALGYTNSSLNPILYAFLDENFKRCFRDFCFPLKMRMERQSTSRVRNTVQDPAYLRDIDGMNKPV", "assay": "KOR antagonists by imaging, SAR follow-up, image-based (AID 2348)", "format": "functional"}, "Mu-type opioid receptor [8]": {"target": "T3, Mu-type opioid receptor", "assay": "MOR antagonists, SAR follow-up, image-based (AID 2420)", "format": "functional"}, "[9]": {"target": "T4, Kappa-type opioid receptor", "assay": "KOR agonist analogs, imaging readout, SAR follow-up, image-based (AID 2359)", "format": "functional"}, "[10]": {"target": "T2, Delta-type opioid receptor", "assay": "DOR agonists, SAR follow-up, image-based (AID 2370)", "format": "functional"}, "[11]": {"target": "T4, Kappa-type opioid receptor", "assay": "kappa opioid receptor blockers, cell-based, luminescence, beta-arrestin, SAR follow-up (AID 2285)", "format": "functional"}, "HEK293 [12]": {"test_system": "HEK293", "assay": "NOD2 signaling inhibitors in MDP-stimulated cells, cell-based, uHTS, luminescence (AID 2001)", "format": "functional", "conditions": "Homo sapiens"}, "HEK293 [13]": {"test_system": "HEK293", "assay": "cells", "format": "functional, cell-based", "conditions": "Homo sapiens"}, "HEK293 [14]": {"test_system": "HEK293", "assay": "NOD1 signaling inhibitors, primary screen, cell-based, luminescence, uHTS (AID 1578)", "format": "functional", "conditions": "Homo sapiens"}, "SUMO-activating enzyme [15]": {"target": "T5, SUMO-activating enzyme (Homo sapiens, UniProt Q9UBT2)", "assay": "inhibitors of in vitro SUMOylation cascade, primary screen, biochemical, HTRF, uHTS (AID 2006)", "format": "protein-complex assay"}, "SUMO-activating enzyme [16]": {"target": "T5, SUMO-activating enzyme", "assay": "SUMOylation inhibitor hit validation, confirmation, SUMOylation inhibitor project, biochemical, AlphaScreen (AID 2018)", "format": "functional"}, "HEK293 [17]": {"test_system": "HEK293", "assay": "cells", "format": "functional, cell-based", "conditions": "Homo sapiens", "remark": "listed apart in the source"}, "[18]": {"target": "Dual specificity protein kinase CLK1 (Homo sapiens, UniProt P49759)", "assay": "CLK1 kinase inhibitors, off-target check, dose response, selectivity assay for Dyrk1A inhibitor project, biochemical, cherry-picked samples (AID 588811)"}, "[19]": {"target": "Dual specificity tyrosine-phosphorylation-regulated kinase 1A (Rattus norvegicus, UniProt Q63470)", "format": "biochemical, Homo sapiens"}, "[20]": {"target": "Intestinal-type alkaline phosphatase (Homo sapiens, UniProt P09923)", "assay": "inhibition of human intestinal alkaline phosphatase – biochemical, dose response (AID 488876)", "format": "functional"}, "Caspase-6": {"target": "T6, Caspase-6 (Homo sapiens, UniProt P55212)", "T6 sequence (P55212 whole entry)": "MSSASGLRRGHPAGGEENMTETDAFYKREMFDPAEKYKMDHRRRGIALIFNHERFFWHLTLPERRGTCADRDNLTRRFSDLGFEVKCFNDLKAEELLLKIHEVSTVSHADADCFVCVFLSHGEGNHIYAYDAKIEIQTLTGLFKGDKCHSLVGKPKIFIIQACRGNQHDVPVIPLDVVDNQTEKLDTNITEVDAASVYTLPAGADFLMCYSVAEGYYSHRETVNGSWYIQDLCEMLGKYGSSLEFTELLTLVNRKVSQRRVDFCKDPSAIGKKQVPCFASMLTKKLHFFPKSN", "assay": "human caspase-6 inhibitors, dose response, biochemical, VEID-R110 fluorescence, cherry-pick (AID 720632)"}, "[21]": {"target": "Intestinal-type alkaline phosphatase (Mus musculus, UniProt P24822)", "assay": "PubChem AID 488785", "format": "functional"}, "[22]": {"target": "T7, Alkaline phosphatase, tissue-nonspecific isozyme (Homo sapiens, UniProt P05186)", "T7 sequence (P05186 whole entry)": "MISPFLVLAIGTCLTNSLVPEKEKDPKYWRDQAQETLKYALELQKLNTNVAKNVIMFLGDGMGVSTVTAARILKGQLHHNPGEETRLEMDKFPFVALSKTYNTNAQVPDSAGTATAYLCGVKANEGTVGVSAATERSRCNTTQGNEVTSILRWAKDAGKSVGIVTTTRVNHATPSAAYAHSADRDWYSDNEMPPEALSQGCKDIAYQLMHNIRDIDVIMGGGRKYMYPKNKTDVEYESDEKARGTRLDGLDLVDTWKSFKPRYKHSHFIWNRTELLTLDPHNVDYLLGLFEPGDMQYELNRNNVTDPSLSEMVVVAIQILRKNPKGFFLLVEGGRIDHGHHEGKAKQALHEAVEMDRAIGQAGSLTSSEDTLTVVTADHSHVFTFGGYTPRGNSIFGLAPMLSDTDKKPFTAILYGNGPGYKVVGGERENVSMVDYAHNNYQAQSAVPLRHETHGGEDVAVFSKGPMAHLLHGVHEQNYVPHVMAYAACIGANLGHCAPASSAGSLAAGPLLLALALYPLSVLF", "assay": "TNAP enzyme inhibition by screening hits, dose response, selectivity assay for mouse IAP inhibitor project, biochemical, human TNAP, uHTS hits (AID 488906)", "format": "functional"}, "SUMO E1/E2": {"target": "SUMO E1/E2 (Homo sapiens, UniProt P63279+Q9UBE0+Q9UBT2)", "assay": "SAR analysis of SUMOylation using HTRF in an in-Vitro dose response assay. [Related pubchem assays (depositor defined):AID2006, AID2011, AID2018, AID2069, AID2658]", "format": "functional"}, "INS1": {"test_system": "INS1", "assay": "beta cell apoptosis inhibitors, cytokine rescue, dose response, luminescence, retest (AID 449756)", "format": "functional, cell-based", "conditions": "Rattus norvegicus, INS1"}, "[23]": {"assay": "cytotoxicity in MIN6 insulinoma cells, dose response, cytotoxicity control, cell-based, mouse insulinoma (AID 2122)", "format": "functional"}, "[24]": {"assay": "insulin promoter down-regulators in MIN6 cells, imaging, high-content screening, mouse beta cells (AID 1628)", "format": "functional"}, "Cytochrome P450 2C9": {"target": "Cytochrome P450 2C9 (Homo sapiens, UniProt P11712)"}, "Cytochrome P450 2D6": {"target": "Cytochrome P450 2D6 (Homo sapiens, UniProt P10635)"}},
  "note": "Activity calls are given as the source filed them.",
  "data": [
    {"smiles": "CCn1c(=O)cc(N=C2NCC(C)CN2c2cccc(Cl)c2)n(C)c1=O", "note": "(stereo not drawn)", "values": [
      {"measurement": "EC50", "setting": "Beta-galactosidase", "result": "> 40 µM (inactive)"},
      {"measurement": "IC50", "setting": "[1]", "result": "> 40 µM (not active)"}
    ]},
    {"smiles": "CCn1c(=O)cc(SCC(=O)Nc2ccc(Cl)cc2)c2ccccc21", "values": [
      {"measurement": "EC50", "setting": "[2]", "result": "> 79.4 µM (not active)"},
      {"measurement": "EC50", "setting": "[3]", "result": "> 79.4 µM (not active)"},
      {"measurement": "EC50", "setting": "[4]", "result": "> 79.4 µM (inactive)"}
    ]},
    {"smiles": "O=C(NC(NC(=S)Nc1ccc(Br)cc1)C(Cl)(Cl)Cl)OCc1ccccc1", "note": "(stereo not drawn)", "values": [
      {"measurement": "IC50", "setting": "[5]", "result": "> 32 µM (inactive)"},
      {"measurement": "EC50", "setting": "Mu-type opioid receptor [6]", "result": "> 32 µM (inactive)"},
      {"measurement": "IC50", "setting": "[7]", "result": "> 32 µM (inactive)"},
      {"measurement": "IC50", "setting": "Mu-type opioid receptor [8]", "result": "> 32 µM (inactive)"},
      {"measurement": "EC50", "setting": "[9]", "result": "> 32 µM (inactive)"},
      {"measurement": "EC50", "setting": "[10]", "result": "> 32 µM (inactive)"},
      {"measurement": "IC50", "setting": "[11]", "result": "> 10 µM (inactive)"}
    ]},
    {"smiles": "Cc1ccc(/C=C2/SC(=S)N(c3ccc(S(=O)(=O)Nc4nccs4)cc3)C2=O)cc1", "values": [
      {"measurement": "IC50", "setting": "HEK293 [12]", "result": "14.2 µM (inactive)"},
      {"measurement": "IC50", "setting": "HEK293 [13]", "result": "> 20 µM (inactive)"},
      {"measurement": "EC50", "setting": "HEK293 [14]", "result": "> 20 µM (inactive)"},
      {"measurement": "IC50", "setting": "SUMO-activating enzyme [15]", "result": "38.6 µM (active)"},
      {"measurement": "IC50", "setting": "SUMO-activating enzyme [16]", "result": "1.58 µM (active)"},
      {"measurement": "IC50", "setting": "HEK293 [17]", "result": "17.8 µM (active)"}
    ]},
    {"smiles": "Cc1nc(NC(=O)c2ccccc2)sc1-c1csc(NCc2ccco2)n1", "values": [
      {"measurement": "AC50", "setting": "[18]", "result": "0.579 µM (active)"},
      {"measurement": "AC50", "setting": "[19]", "result": "7.53 µM (active)"}
    ]},
    {"smiles": "CCOc1ccc(S(=O)(=O)Nc2ccc(O)c(Sc3nnc[nH]3)c2)cc1", "values": [
      {"measurement": "IC50", "setting": "[20]", "result": "5.04 µM (active)"},
      {"measurement": "AC50", "setting": "Caspase-6", "result": "51.3 µM (active)"},
      {"measurement": "IC50", "setting": "[21]", "result": "1.17 µM (active)"},
      {"measurement": "IC50", "setting": "[22]", "result": "32.4 µM (active)"}
    ]},
    {"smiles": "Cc1ccsc1C=Nc1ccccc1O", "values": [
      {"measurement": "IC50", "setting": "SUMO E1/E2", "result": "> 100 µM (inactive)"}
    ]},
    {"smiles": "Sc1n[nH]c(-c2cc(Cl)ccc2Cl)n1", "values": [
      {"measurement": "EC50", "setting": "[2]", "result": "> 26.5 µM (not active)"},
      {"measurement": "EC50", "setting": "[3]", "result": "> 79.4 µM (not active)"},
      {"measurement": "EC50", "setting": "[4]", "result": "> 79.4 µM (inactive)"}
    ]},
    {"smiles": "O=C(CSC1=NCCS1)Nc1ccnc2ccccc12", "values": [
      {"measurement": "AC50", "setting": "INS1", "result": "12.1 µM (active)"},
      {"measurement": "IC50", "setting": "[23]", "result": "1.34 µM (active)"},
      {"measurement": "IC50", "setting": "[24]", "result": "1.69 µM (active)"}
    ]},
    {"smiles": "Cc1ccc(-n2c(=O)c3sccc3n(CC(=O)NCc3ccco3)c2=O)cc1F", "values": [
      {"measurement": "AC50", "setting": "Cytochrome P450 2C9", "result": "14.1 µM (inconclusive)"},
      {"measurement": "AC50", "setting": "Cytochrome P450 2D6", "result": "inconclusive"}
    ]}
  ]
}
